Laboratory results: patent US7960508B2, “Peptide having cytotoxicity inhibitory activity and method of screening these peptide having cytotoxicity inhibitory activity” (Juridical Foundation The Chemo-Sero-Therapeutic Research …, priority 2001, dated 2011)
Non-standard residues stand in square brackets, D forms with d. Residues, ends and D or L forms follow the SMILES beside them. No end group written: not given here. Sec = N[C@@H](C[SeH])C(=O)O

How the values were obtained:
Dami cells [1] = assay: Screening of efficacious peptides: cytotoxicity-inhibitory activity (Example 3); format: cell-based; conditions: for Activity/1 mM Sec: cytotoxicity-inhibitory activity per 1 mM selenocysteine
Procedure: (§1) The cells were washed twice with 50% PBS/SA/0.03% HSA (manufactured by SIGMA) and suspended in the same medium at 3×10^4 cells/ml.
(§2) For assessment, it was examined to what folds of dilution of tested samples the cells could survive in view of the fact that on Day 4 the cells in wells without the activity were put to death whereas the cells in wells with the activity survived.
Cytotoxicity-inhibitory activity was determined for each of the peptides obtained above as described in Reference Example 1 and in accordance with Reference Example 2. As a result, selenocysteine-containing peptides, Peptide 3 through Peptide 16, were confirmed to have the cytotoxicity-inhibitory activity.

Dami cells [2] = assay: Minimum concentration for cytotoxic effect / effective minimum concentration (Example 2); format: cell-based
Procedure: Using Dami cells (described in Greenberg S. M. et al., Blood, vol. 72, p. 1968-1977 (1988)) for use in assay system for the cytotoxicity-inhibitory activity, the cells were washed twice with assay medium (50% PBS/SA/0.03% HSA (manufactured by SIGMA) or SA/0.05% BSA free from fatty acid (WAKO)/4 μM long-chain polyvalent fatty acid (e.g. arachidonic acid, linoleic acid or linolenic acid)) and suspended in the same medium at 3×10^4 cells/ml.

[3] = tested on: intracellular GPX (glutathione peroxidase) activity in Dami cells; assay: Increase in intracellular GPX (glutathione peroxidase) activity (Example 5); format: cell-based, human
Procedure: The resulting cells were suspended in SA/0.01% BSA at 5×10^5 cells/ml. To 1 ml of this cell suspension were added samples at a fixed concentration so as to compare a concentration that was effective for increase in GPX activity in the samples.
The samples included a selenoprotein P fragment, a synthetic peptide, selenocystine, selenomethionine, Ebselen and sodium selenite. The effect was compared among these samples. […] See FIG. 4 in which the axis of abscissas indicates a percent GPX activity induced by various samples with the GPX activity induced by addition of 10 nM selenoprotein P fragment being 100% while culture of Dami cells.

Dami cells [4] = assay: Cytotoxicity induced by fatty acid and inhibitory activity thereto (Reference Example 2); conditions: for fatty acid concentration inducing cytotoxicity: human
Procedure: To 1 ml Dami cells (1×10^6 cells/dish/3 ml), which can be subcultured in serum free medium SFO3 (manufactured by Sanko Jun-yaku K.K.) containing 0.05 μM 2ME and 0.1% BSA, was added 2 ml 1:2:2 mixed medium (SA medium) of RPMI 1640/D-MEM/F-12. The cells were cultured for three days and recovered for assay. The cells were washed twice with SA/0.05% fatty acid free BSA (manufactured by Wako Jun-yaku K.K.) and suspended at 3×10^4 cells/ml in the same medium containing 2 to 16 μM arachidonic acid, linoleic acid or linolenic acid. The cell suspension was added to a 96-well plate in each 198 μl for wells for sample addition or in each 100 μl for wells for serial dilution.
To the wells for sample addition was added each 2 μl of 100 μM assay sample and, after stirring, a serial dilution was made with the wells containing 100 μl cell suspension. The plate was incubated at 37° C. in CO2 incubator for 4 to 5 days.

Dami cells [5] = assay: Assessment system for activity to inhibit cytotoxicity induced by addition of albumin (Reference Example 1); format: cell-based
Procedure: As one of preferable embodiments, a culture system of Dami cells, human megakaryoblasts, with serum free culture medium supplemented with albumin was used for screening. […] A diluted sample of active fractions was added to this culture system so that the cytotoxicity-inhibitory activity could be assessed.
as §1, §2

[6] = 1 nM, 10 nM selenoprotein P fragment being 100%

CC[C@H](C)[C@H](NC(=O)[C@H](CC(C)C)NC(=O)[C@H](Cc1c[nH]cn1)NC(=O)[C@H](CCCNC(=N)N)NC(=O)[C@H](CO)NC(=O)[C@H](Cc1c[nH]cn1)NC(=O)[C@H](CO)NC(=O)[C@H](CO)NC(=O)[C@H](C[SeH])NC(=O)[C@H](CO)NC(=O)[C@@H](N)CCCNC(=N)N)C(=O)N[C@@H](Cc1ccccc1)C(=O)N[C@@H](CCC(=O)O)C(=O)N[C@@H](CCCCN)C(=O)O [Peptide 6] (H-RS[Sec]SSHSRHLIFEK-OH)
cytotoxicity-inhibitory activity (Dami cells [1]; result in words): could inhibit cytotoxicity most effectively at the lowest concentration

RSSCCHCRHLIFEK (cysteine pairing not given here) [Peptide 2]
Activity/1 mM Sec (Dami cells [1]): 0

Arg Ser Xaa Cys Cys His Cys Arg His Leu Ile Phe Glu Lys (RS[Sec]CCHCRHLIFEK; cysteine pairing not given here; listed as Human plasma) [Peptide 3]
Activity/1 mM Sec (Dami cells [1]): 95,000

Xaa Pro Ser Asn ([Sec]PSN; listed as Human plasma) [Peptide 13]
Activity/1 mM Sec (Dami cells [1]): 24,000

KRCINQLLCKLPTDSELAPRS (cysteine pairing not given here) [Peptide 1]
Activity/1 mM Sec (Dami cells [1]): 0

Leu Ile Pro Thr Glu Ala Ser Ala Ser Xaa Arg (LIPTEASAS[Sec]R; listed as Human plasma) [Peptide 11]
Activity/1 mM Sec (Dami cells [1]): 28,000

N[C@@H](C[Se][Se]C[C@H](N)C(=O)O)C(=O)O [selenocystine]
toxicity upon addition to cell culture (Dami cells [2]): fairly strong toxicity
increase in intracellular GPX activity [3, 6]: around 50%

Thr Gly Ser Ala Ile Thr Xaa Gln Ser Lys (TGSAIT[Sec]QSK; listed as Human plasma) [Peptide 8]
Activity/1 mM Sec (Dami cells [1]): 79,000

Lys Glu Phe Ile Leu His Arg Ser His Ser Ser Xaa Ser Arg (KEFILHRSHSS[Sec]SR; listed as Human plasma) [Peptide 14]
Activity/1 mM Sec (Dami cells [1]): 95,000

Lys Asn Gln Ala Lys Lys Xaa Glu (KNQAKK[Sec]E; listed as Human plasma) [Peptide 12]
Activity/1 mM Sec (Dami cells [1]): 24,000

Arg Ser Xaa Ser (RS[Sec]S; listed as Human plasma) [Peptide 7]
Activity/1 mM Sec (Dami cells [1]): 95,000

CCCCC/C=C\C/C=C\C/C=C\C/C=C\CCCCCC(=O)O [adrenic acid]
induction of cytotoxicity by fatty acid (Dami cells [4]; 10 μM, serum free culture, absence of selenoprotein P): induced cytotoxicity

Glu Asn Leu Pro Ser Leu Ser Ser Xaa Gln Gly Leu Arg (ENLPSLSS[Sec]QGLR; listed as Human plasma) [Peptide 9]
Activity/1 mM Sec (Dami cells [1]): 24,000

CCCCC/C=C\C/C=C\CCCCCCCC(=O)O [linoleic acid]
fatty acid concentration inducing cytotoxicity (Dami cells [4]): ≥ 4 µM

vitamin E
effective concentration inhibiting cytotoxicity (Dami cells [4]; in the presence of 4 μM linoleic acid): about 100 nM

C[Se]CC[C@H](N)C(=O)O [selenomethionine]
effective minimum concentration of selenium to inhibit 80% or more of cytotoxicity (Dami cells [2]): around 1 μM
increase in intracellular GPX activity ([3]; 10 nM): increase in the activity could scarcely be observed

Leu Pro Pro Ala Ala Xaa Gln Ile Ser Gln Gln (LPPAA[Sec]QISQQ; listed as Human plasma) [Peptide 16]
Activity/1 mM Sec (Dami cells [1]): 24,000

Arg Ser Xaa Ser Ser His Cys Arg His Leu Ile Phe Glu Lys (RS[Sec]SSHCRHLIFEK; listed as Human plasma) [Peptide 5]
Activity/1 mM Sec (Dami cells [1]): 16,000

O=[Se](O)O [sodium selenite]
concentration at which toxicity was observed (Dami cells [2]; on the basis of selenium concentration, 4 to 5 days culture): around 500 nM
increase in intracellular GPX activity [3, 6]: around 50%

Lys Arg Cys Ile Asn Gln Leu Leu Cys Lys Leu Pro Thr Asp Ser Glu Leu Ala Pro Arg Ser Xaa Cys Cys His Cys Arg His Leu Ile Phe Glu Lys (KRCINQLLCKLPTDSELAPRS[Sec]CCHCRHLIFEK; cysteine pairing not given here; listed as Human plasma) [SEQ ID NO: 3, peptide fragment purified under reduced condition from selenoprotein P fragment]
cytotoxicity-inhibitory activity (Dami cells [5]; result in words, assay not specified): had the cytotoxicity-inhibitory activity

O=c1c2ccccc2[se]n1-c1ccccc1 [Ebselen]
toxicity upon addition to cell culture (Dami cells [2]): exhibited a strong toxicity

Ala Glu Glu Asn Ile Thr Glu Ser Ser Gln Xaa Arg (AEENITESSQ[Sec]R; listed as Human plasma) [Peptide 10]
Activity/1 mM Sec (Dami cells [1]): 6,000

Arg Ser Xaa Ser Cys His Cys Arg His Leu Ile Phe Glu Lys (RS[Sec]SCHCRHLIFEK; cysteine pairing not given here; listed as Human plasma) [Peptide 4]
Activity/1 mM Sec (Dami cells [1]): 24,000

CCCCC/C=C\C/C=C\C/C=C\C/C=C\CCCC(=O)O [arachidonic acid]
fatty acid concentration inducing cytotoxicity (Dami cells [4]): ≥ 4 µM

B1: SEQ ID NO: 2: selenoprotein P fragment with the amino acid sequence from 260th Lys to 362nd Asn, Xaa represents selenocysteine (protein, listed as Human plasma)
chain: KRCINQLLCKLPTDSELAPRS[Sec]CCHCRHLIFEKTGSAIT[Sec]QCKENLPSLCS[Sec]QGLRAEENITESCQ[Sec]RLPPAA[Sec]QISQQLIPTEASAS[Sec]R[Sec]KNQAKK[Sec]E[Sec]PSN
cytotoxicity-inhibitory activity (Dami cells [5]): having the cytotoxicity-inhibitory activity

B2: full-length selenoprotein P: selenoprotein P as an intact molecule, a protein from blood components (protein, UniProt P49908 1-381, looked up)
chain: MWRSLGLALALCLLPSGGTESQDQSSLCKQPPAWSIRDQDPMLNSNGSVTVVALLQASUYLCILQASKLEDLRVKLKKEGYSNISYIVVNHQGISSRLKYTHLKNKVSEHIPVYQQEENQTDVWTLLNGSKDDFLIYDRCGRLVYHLGLPFSFLTFPYVEEAIKIAYCEKKCGNCSLTTLKDEDFCKRVSLATVDKTVETPSPHYHHEHHHNHGHQHLGSSELSENQQPGAPNAPTHPAPPGLHHHHKHKGQHRQGHPENRDMPASEDLQDLQKKLCRKRCINQLLCKLPTDSELAPRSUCCHCRHLIFEKTGSAITUQCKENLPSLCSUQGLRAEENITESCQURLPPAAUQISQQLIPTEASASURUKNQAKKUEUPSN
modifications: full-length
notes: selenoprotein P as an intact molecule, a protein from blood components
toxicity upon addition to cell culture (Dami cells [2]): no strong toxicity
